From ChEMBL document CHEMBL1201862, “PubChem BioAssay data set” (2004)
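Step 1: Grow cells in 96-well plates. Step 2: Expose to compound for 48 hours at 5 concentrations. Step 3: Interpolate endpoints linearly; if unreached, use highest concentration. GI50 = concentration required for 50% inhibition of growth.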 Activity calls are given as the source filed them. Rule as the data show it: active = GI50 up to about 1.1 µM and inactive = higher.

Assays:
Assay in all cases: NCI-60 cell line screen, 48 h
OVCAR-8 = test system: OVCAR-8
M14 = test system: M14
786-0 = test system: 786-0
TK-10 = test system: TK-10
MOLT-4 = test system: MOLT-4
EKVX = test system: EKVX
SN12C = test system: SN12C
NCI-H460 = test system: NCI-H460
K562 = test system: K562
SR = test system: SR
SNB-75 = test system: SNB-75
SK-MEL-5 = test system: SK-MEL-5
LOX IMVI = test system: LOX IMVI
HOP-92 = test system: HOP-92
A498 = test system: A498
OVCAR-5 = test system: OVCAR-5
HCT-15 = test system: HCT-15

Compound | GI50 (OVCAR-8) | GI50 (M14) | GI50 (786-0) | GI50 (TK-10) | GI50 (MOLT-4) | GI50 (EKVX) | GI50 (SN12C) | GI50 (NCI-H460) | GI50 (K562) | GI50 (SR) | GI50 (SNB-75) | GI50 (SK-MEL-5) | GI50 (LOX IMVI) | GI50 (HOP-92) | GI50 (A498) | GI50 (OVCAR-5) | GI50 (HCT-15)
COc1ccc(Cc2c3cc(O)c([O-])cc3cc[n+]2C)cc1 | 29 µM (inactive) | 11.4 µM (inactive) | 10.2 µM (inactive) | 98.4 µM (inactive) | 10.2 µM (inactive) | > 73.6 µM (inactive) | 21 µM (inactive) | 5.68 µM (inactive) | 6.61 µM (inactive) | 5.86 µM (inactive) | 48.2 µM (inactive) | 20.6 µM (inactive) | 13.3 µM (inactive) | 47.9 µM (inactive) | 42 µM (inactive) | 33.7 µM (inactive) | –
N#CCN1C(=O)c2cc([N+](=O)[O-])cc3cc([N+](=O)[O-])cc(c23)C1=O | 13.8 µM (inactive) | 17 µM (inactive) | 11.8 µM (inactive) | 27.7 µM (inactive) | 2.38 µM (inactive) | 23.6 µM (inactive) | 13.1 µM (inactive) | 14.9 µM (inactive) | 5.68 µM (inactive) | 1.36 µM (inactive) | 26.1 µM (inactive) | 15.6 µM (inactive) | 6.41 µM (inactive) | 17.1 µM (inactive) | 35.6 µM (inactive) | 18.9 µM (inactive) | 6.71 µM
CC1=CC=C2C(C)(C)CC[C@@H]3OC(=O)[C@H]1[C@]23C | > 100 µM (inactive) | > 100 µM (inactive) | > 100 µM (inactive) | > 100 µM (inactive) | > 100 µM (inactive) | > 100 µM (inactive) | > 100 µM (inactive) | – | > 100 µM (inactive) | > 100 µM (inactive) | > 100 µM (inactive) | > 100 µM (inactive) | > 100 µM (inactive) | > 100 µM (inactive) | > 100 µM (inactive) | > 100 µM (inactive) | –
O=C1C2C=CC(n3[nH]c(=O)n(Cc4ccccc4)c3=O)CC2C(=O)N1c1cccc(Cl)c1 (centres undefined) | > 100 µM (inactive) | > 100 µM (inactive) | > 100 µM (inactive) | > 100 µM (inactive) | – | > 100 µM (inactive) | > 100 µM (inactive) | > 100 µM (inactive) | > 100 µM (inactive) | > 100 µM (inactive) | > 100 µM (inactive) | > 100 µM (inactive) | > 100 µM (inactive) | > 100 µM (inactive) | > 100 µM (inactive) | > 100 µM (inactive) | > 100 µM
NS(=O)(=O)c1ccc(NC2=CC(=O)C(=O)c3ccccc32)cc1 | > 100 µM (inactive) | > 100 µM (inactive) | > 100 µM (inactive) | > 100 µM (inactive) | 72.1 µM (inactive) | > 100 µM (inactive) | > 100 µM (inactive) | > 100 µM (inactive) | > 100 µM (inactive) | > 100 µM (inactive) | > 100 µM (inactive) | > 100 µM (inactive) | > 100 µM (inactive) | > 100 µM (inactive) | > 100 µM (inactive) | > 100 µM (inactive) | > 100 µM
CCOC(=O)/C(ON)=C(/CC/C(C(=O)OC)=C(\ON)C(=O)OCC)C(=O)OC | > 100 µM (inactive) | > 100 µM (inactive) | > 100 µM (inactive) | > 100 µM (inactive) | > 100 µM (inactive) | > 100 µM (inactive) | > 100 µM (inactive) | > 100 µM (inactive) | > 100 µM (inactive) | > 100 µM (inactive) | > 100 µM (inactive) | > 100 µM (inactive) | > 100 µM (inactive) | > 100 µM (inactive) | > 100 µM (inactive) | > 100 µM (inactive) | > 100 µM
N=C1NC(=O)N2CC12 (centres undefined) [IMEXON] | > 100 µM (inactive) | > 100 µM (inactive) | > 100 µM (inactive) | > 100 µM (inactive) | > 100 µM (inactive) | > 100 µM (inactive) | > 100 µM (inactive) | > 100 µM (inactive) | 73.1 µM (inactive) | 51.4 µM (inactive) | > 100 µM (inactive) | > 100 µM (inactive) | > 100 µM (inactive) | > 100 µM (inactive) | > 100 µM (inactive) | – | > 100 µM
